From ChEMBL document CHEMBL1201862, “PubChem BioAssay data set” (2004)
Several values for one entry are separate records, joined by “and”; a condition that tells them apart may be missing. Identical values can stand only once. Activity calls are given as the source filed them.

biological target: Cytochrome P450 2C19 (Homo sapiens, UniProt P33261); experiment: Cytochrome panel assay with activity outcomes. Panel member name: p450-cyp2c19 Compounds with AC50 equal or less than 10 uM are considered active; format: functional; conditions: read-out: AC50
Sequence (P33261 whole entry): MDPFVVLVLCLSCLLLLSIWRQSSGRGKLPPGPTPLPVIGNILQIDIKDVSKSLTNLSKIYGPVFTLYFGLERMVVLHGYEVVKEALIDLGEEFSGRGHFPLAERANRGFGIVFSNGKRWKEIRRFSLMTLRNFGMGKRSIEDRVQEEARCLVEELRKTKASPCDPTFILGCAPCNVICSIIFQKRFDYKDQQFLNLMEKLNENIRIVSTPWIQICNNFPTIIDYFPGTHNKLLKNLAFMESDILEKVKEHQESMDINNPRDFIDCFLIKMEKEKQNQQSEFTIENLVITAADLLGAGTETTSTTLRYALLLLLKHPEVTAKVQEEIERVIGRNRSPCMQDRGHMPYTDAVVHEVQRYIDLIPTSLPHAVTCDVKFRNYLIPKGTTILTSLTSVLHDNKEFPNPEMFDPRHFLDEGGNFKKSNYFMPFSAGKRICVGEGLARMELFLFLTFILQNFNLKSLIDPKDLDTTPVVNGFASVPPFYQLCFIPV

**Q.** With `C/C(CCC(=O)OC[C@@H]1O[C@H](C#Cc2ccccc2)C=C[C@@H]1Oc1ccc(C)cc1)=N/OC[C@@H](O)[C@H]1O[C@H]2OC(C)(C)O[C@H]2[C@@H]1O` as the compound, how does the AC50 read?
**A.** 6.31 µM (inconclusive)

**Q.** For `CCCc1cc2c(n1Cc1ccc(C)cc1)C(C)C1CN(C(=O)c3ccccc3)C(C)(C(=O)OC)C21` (stereo not given), which AC50 is on record?
**A.** 25.1 µM (inconclusive)

**Q.** For `O=C(c1ccco1)N1CCC2(CC1)CN(c1cccc(-c3ccccc3)c1)C2`, which AC50 is on record?
**A.** 3.98 µM (inconclusive)

**Q.** Which AC50 does the source give for `CCCC(C(=O)OCCN(CC)CC)(c1ccccc1)c1ccccc1` [PROADIFEN] here?
**A.** 7.94 µM (inconclusive) and 3.98 µM (inconclusive)

**Q.** With `CSc1nc2c(c(C(F)(F)F)n1)CC(C)CC2` (stereo not given) as the compound, how does the AC50 read?
**A.** 39.8 µM (inconclusive)

tested on: not listed separately; experiment: NIH3T3 cell viability loss – ATP luminescence, mouse fibroblasts, counter-screen, dose response (AID 2010); format: functional, cell-based; conditions: not given;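 note: cells exposed to compound for about 90 hours before reading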

**Q.** For `Cc1c(-c2nc(N)nc(Nc3ccc(F)cc3)n2)oc2ccccc12`, which EC50 is on record?
**A.** 13.4 µM (active)

**Q.** Which EC50 does the source give for `CN(C)c1ccc(C2CNC(c3ccc(Cl)c([N+](=O)[O-])c3)c3[nH]c4ccccc4c32)cc1` (stereo not given) here?
**A.** > 60 µM (not active)

**Q.** Which EC50 does the source give for `CCCCN(CC)CCCNC(=O)c1cn(-c2ccc(OC)cc2)c(=O)c2ccccc12` here?
**A.** > 60 µM (not active)

**Q.** For `Cc1ccc(C)c(NC(S)=NN=C(S)Nc2ccc(C(C)C)cc2)c1`, which EC50 is on record?
**A.** > 60 µM (not active)

**Q.** With `CCC(C)NS(=O)(=O)c1ccc(S(=O)(=O)N(CCc2ccc(OC)c(OC)c2)Cc2cccs2)cc1` (stereo not given) as the compound, how does the EC50 read?
**A.** > 60 µM (not active)

**Q.** Which EC50 does the source give for `CCOc1ccccc1-c1nc(-c2ccc(NC(=O)Cc3ccccc3OC)cc2)no1` here?
**A.** 10.2 µM (active)

**Q.** For `COc1ccc(C(=O)C[n+]2nc(CNc3ccc(Br)cc3)n3c2CCCCC3)cc1`, which EC50 is on record?
**A.** > 60 µM (not active)

**Q.** With `COc1ccc(OC)c(C(c2nnnn2C(C)(C)C)N2CCc3ccccc3C2)c1` (stereo not given) as the compound, how does the EC50 read?
**A.** 5.8 µM (active)

**Q.** For `Cc1nn(S(=O)(=O)c2ccc([N+](=O)[O-])cc2)c(C)c1Sc1ccccc1`, which EC50 is on record?
**A.** > 60 µM (not active)

**Q.** With `Cc1ccc(Cl)cc1NC(=S)N/N=C/c1cccc2ccccc12` as the compound, how does the EC50 read?
**A.** 0.425 µM (active)

**Q.** Which EC50 does the source give for `CN([C@@H](Cc1ccc(OS(=O)(=O)c2cccc3cnccc23)cc1)C(=O)N1CCN(c2ccccc2)CC1)S(=O)(=O)c1cccc2cnccc12` here?
**A.** 11.2 µM (active)

**Q.** For `C=C1SC(Nc2c(C)cccc2C)=NC12CCCCC2`, which EC50 is on record?
**A.** 4.83 µM (active)

**Q.** For `Cc1ccc2nc(O)c(C(c3nnnn3C(C)(C)C)N(Cc3ccco3)CC3CCCO3)cc2c1` (stereo not given), which EC50 is on record?
**A.** > 60 µM (not active)

**Q.** For `Cc1cc(C)cc(NC(=O)CSc2nc3c(oc4ccccc43)c(=O)n2-c2ccccc2)c1`, which EC50 is on record?
**A.** > 60 µM (inconclusive)

**Q.** For `CCOc1ccc(N(C)Cc2cc(=O)oc3ccc(OC)cc23)cc1`, which EC50 is on record?
**A.** > 60 µM (not active)

**Q.** Which EC50 does the source give for `CCOC(=O)C1=C(c2ccccc2)NC(SCC(=O)Nc2ccc(C)cc2)=C(C#N)C1c1ccco1` (stereo not given) here?
**A.** > 60 µM (not active)

**Q.** With `COc1cccc(CN2CCCC(CNC(=O)c3ccc(F)cc3)C2)c1OC` (stereo not given) as the compound, how does the EC50 read?
**A.** > 60 µM (inconclusive)

**Q.** Which EC50 does the source give for `Cc1ccc(S(=O)(=O)c2c(N)n(/N=C/c3ccco3)c3nc4ccccc4nc23)cc1` here?
**A.** > 60 µM (not active)

tested on: not listed separately; experiment: alpha-synuclein stem-loop luciferase translation blockers – H4 neuroglioma cells, luminescence, confirmation (AID 1988); format: functional, cell-based; conditions: not given

**Q.** Which EC50 does the source give for `O=C(CSC(=S)N1CCCCC1)c1ccccc1` here?
**A.** 10.8 µM (active)

tested on: not listed separately; experiment: Luminescence Cell-Based Dose Response HTS to Identify Inhibitors of 5'UTR Stem-Loop Driven Prion Protein mRNA Translation in H4 Neuroglioblastoma Cells. [Related pubchem assays: 1827 (Project Summary), 1813 (Primary HTS)]; format: functional; conditions: not given

**Q.** Which EC50 does the source give for `O=C(CSC(=S)N1CCCCC1)c1ccccc1` here?
**A.** > 60 µM (not active)

tested on: not listed separately; experiment: Trypanosoma cruzi growth suppression in host cells – NIH3T3 host cells, beta-gal luminescence, confirmation (AID 2044); format: functional, cell-based; conditions: not given;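 note: intracellular parasites grown in NIH/3T3 mouse fibroblasts as host cells; luminescent beta-galactosidase reporter signal from transgenic T. cruzi replicating inside host cells; inhibitors lower the luminescence signal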

**Q.** Which EC50 does the source give for `Cc1c(-c2nc(N)nc(Nc3ccc(F)cc3)n2)oc2ccccc12` here?
**A.** 2.76 µM (active)

**Q.** Which EC50 does the source give for `CN(C)c1ccc(C2CNC(c3ccc(Cl)c([N+](=O)[O-])c3)c3[nH]c4ccccc4c32)cc1` (stereo not given) here?
**A.** 1.88 µM (active)

**Q.** Which EC50 does the source give for `CCCCN(CC)CCCNC(=O)c1cn(-c2ccc(OC)cc2)c(=O)c2ccccc12` here?
**A.** 0.496 µM (active)

**Q.** For `Cc1ccc(C)c(NC(S)=NN=C(S)Nc2ccc(C(C)C)cc2)c1`, which EC50 is on record?
**A.** 2.69 µM (active)

**Q.** Which EC50 does the source give for `CCC(C)NS(=O)(=O)c1ccc(S(=O)(=O)N(CCc2ccc(OC)c(OC)c2)Cc2cccs2)cc1` (stereo not given) here?
**A.** 1.72 µM (active)

**Q.** For `CCOc1ccccc1-c1nc(-c2ccc(NC(=O)Cc3ccccc3OC)cc2)no1`, which EC50 is on record?
**A.** 1.21 µM (active)

**Q.** For `COc1ccc(C(=O)C[n+]2nc(CNc3ccc(Br)cc3)n3c2CCCCC3)cc1`, which EC50 is on record?
**A.** 0.898 µM (active)

**Q.** For `COc1ccc(OC)c(C(c2nnnn2C(C)(C)C)N2CCc3ccccc3C2)c1` (stereo not given), which EC50 is on record?
**A.** 2.77 µM (active)

**Q.** Which EC50 does the source give for `Cc1nn(S(=O)(=O)c2ccc([N+](=O)[O-])cc2)c(C)c1Sc1ccccc1` here?
**A.** 1.16 µM (active)

**Q.** For `Cc1ccc(Cl)cc1NC(=S)N/N=C/c1cccc2ccccc12`, which EC50 is on record?
**A.** 2.97 µM (active)

**Q.** Which EC50 does the source give for `CN([C@@H](Cc1ccc(OS(=O)(=O)c2cccc3cnccc23)cc1)C(=O)N1CCN(c2ccccc2)CC1)S(=O)(=O)c1cccc2cnccc12` here?
**A.** 0.4 µM (active)

**Q.** For `C=C1SC(Nc2c(C)cccc2C)=NC12CCCCC2`, which EC50 is on record?
**A.** 0.795 µM (active)

**Q.** With `Cc1ccc2nc(O)c(C(c3nnnn3C(C)(C)C)N(Cc3ccco3)CC3CCCO3)cc2c1` (stereo not given) as the compound, how does the EC50 read?
**A.** 3.14 µM (active)

**Q.** Which EC50 does the source give for `Cc1cc(C)cc(NC(=O)CSc2nc3c(oc4ccccc43)c(=O)n2-c2ccccc2)c1` here?
**A.** 1.26 µM (active)

**Q.** Which EC50 does the source give for `CCOc1ccc(N(C)Cc2cc(=O)oc3ccc(OC)cc23)cc1` here?
**A.** 0.798 µM (active)

**Q.** With `CCOC(=O)C1=C(c2ccccc2)NC(SCC(=O)Nc2ccc(C)cc2)=C(C#N)C1c1ccco1` (stereo not given) as the compound, how does the EC50 read?
**A.** 2.91 µM (active)

**Q.** Which EC50 does the source give for `COc1cccc(CN2CCCC(CNC(=O)c3ccc(F)cc3)C2)c1OC` (stereo not given) here?
**A.** 0.704 µM (active)

**Q.** Which EC50 does the source give for `Cc1ccc(S(=O)(=O)c2c(N)n(/N=C/c3ccco3)c3nc4ccccc4nc23)cc1` here?
**A.** 1.8 µM (active)

tested on: not listed separately; experiment: Luminescence Cell-Based Dose Retest to Confirm Inhibitors of Cancer Stem Cells. [Related pubchem assays (depositor defined):AID2717, AID2721]; format: functional, Homo sapiens; conditions: Homo sapiens

**Q.** For `O=C(NCc1ccco1)c1cc(-c2ccc3c(c2)OCO3)on1`, which AC50 is on record?
**A.** 1.14 µM (active)

**Q.** With `CC(C)(CN1CCN(Cc2ccccc2)CC1)NS(=O)(=O)c1ccccc1` as the compound, how does the AC50 read?
**A.** 12.7 µM (active)

**Q.** With `NC(=O)CC(NC(=O)Cc1cccc2ccccc12)c1ccc(NCc2ccc(F)cc2)c([N+](=O)[O-])c1` (stereo not given) as the compound, how does the AC50 read?
**A.** 5.46 µM (active)

**Q.** Which AC50 does the source give for `Cc1ccc(Cl)cc1NC(=S)N/N=C/c1cccc2ccccc12` here?
**A.** 0.167 µM (active)

**Q.** For `N#CCSc1nc2c(c(=O)n1Cc1ccco1)C1(CCCC1)Cc1ccccc1-2`, which AC50 is on record?
**A.** 0.686 µM (active)

**Q.** For `O=c1c2c3c(sc2nc(NCCO)n1Cc1ccco1)CCCCC3`, which AC50 is on record?
**A.** 1.8 µM (active)

**Q.** With `O=C(CSc1[nH]cnc2ncnc1-2)Nc1nnc(SCc2ccc(Cl)c(Cl)c2)s1` as the compound, how does the AC50 read?
**A.** 7.23 µM (active)
